The values below come from patent publication US10377828B2, “Combination therapy for neoplasia treatment” (Boehringer Ingelheim International GmbH, priority 2013, dated 2019).

“Also recorded” adds a separate entry of the source.

What all share (type): cell-based, human
The subject of experiment [1] is DUCaP cells. Nature of the experiment: 2D cell proliferation assay (CellTiter-Glo). To be noted: 10% FCS-containing growth medium, 5 days, single agent or combination. On the procedure:
(§1) The following method was used to determine the inhibitory effect of IGF ligand-neutralizing mAbs and androgen signaling inhibitors on the growth of prostate cancer cell lines. Assays were performed in cell growth medium containing 10% serum.
(§2) Adherent cells were detached with trypsin/EDTA solution (GIBCO, #043-9031 FU), resuspended in growth medium, centrifuged, resuspended in assay medium (supplemented with 10% heat inactivated FCS and 2 mM L-glutamine) and diluted to 5,000-40,000 cells per mL. 100 μL/well cell suspension was added to each well of a sterile flat-bottom white 96-well plate (PerkinElmer, #6005280) and plates were incubated overnight in a humidified incubator set at +37° C. and 5% CO2. On the next day supernatants were aspirated and 35 μL/well assay medium was added to all wells.
(§3) Serial dilutions of IGF mAb_1 and mAb_2 (1 μM highest concentration), MDV-3100 (10 μM highest concentration), abiraterone acetate (100 μM highest concentration) were prepared on a separate plate in assay medium (no growth factors or hormones supplemented). All agents were tested as single agents or in combination. All samples were tested in triplicate wells (100 μL/well assay). Plates were incubated for 5 days in a humidified incubator at +37° C. and 5% CO2. After this incubation period, CellTiter-Glo buffer, substrate and test plates were equilibrated to RT. CellTiter-Glo is a bioluminescent assay (Promega, #G7571) designed to determine the number of viable cells in culture, in which the generation of a luminescent signal is proportional to the amount of ATP present in cells. 100 μL of freshly mixed CellTiter-Glo reagent was added to each well. After 2 min on an orbital shaker (MTS 2/4, IKA) and 10 min incubation at RT, luminescence was recorded (luminescence reader (Genios Pro, Tecan or Victor X4, Perkin Elmer), integration time 1 sec).

In experiment [2] the test system is MDA PCa 2b cells. Nature of the experiment: 2D cell proliferation assay (CellTiter-Glo). As to conditions: 10% FCS-containing growth medium, 5 days, single agent or combination. On the procedure:
as §1, §2, §3
For orientation: ATP-based viability assays read luminescence as a measure of living cells.

The subject of experiment [3] is VCaP cells. The experiment is described as follows: 2D cell proliferation assay (CellTiter-Glo). To be noted: 10% FCS-containing growth medium, 5 days, single agent or combination. The method, then:
as §1, §2, §3

Experiment [4] relates to VCaP cells. The experiment is described as follows: Thymidine incorporation assay. To be noted: 96 hours, 10 μM MDV-3100 and/or 1 μM IGF mAb_1, compared to untreated controls. On the procedure:
VCaP cells were treated with 1 μM of IGF mAb_1 and 10 μM of MDV-3100 and the combination of both agents and incubated as triplicates in flat-bottom 96-well plates for 96 hours at a density of 5×10^4 cells per well, in the absence of R1881. For the last 24 hours of incubation, ^3H-thymidine (0.4 μCi/well; PerkinElmer, NET355001 MC) was added. Afterwards, the plates were frozen and incubated at −20° C. for 24 h. For harvesting, the plates were thawed and 40 μL Trypsin was added to each well to detach the cell fragments. The suspension was transferred to filter plates. The plates were then washed three times with distilled water and dried at 60° C. for 3 h. 25 μL per well Microscint were added and the proliferation rate was determined by measuring thymidine incorporation (CPM; counts per minute) using a liquid scintillation counter (1450 Microbeta Wallac Trilux, Perkin-Elmer).
Background: Dividing cells build labelled thymidine or BrdU into new DNA.

Experiment [5] deals with VCaP cells. The experiment is described as follows: Assessment of caspase 3 activity (apoptosis induction). As to conditions: 10 μM MDV-3100 and/or 1 μM mAb, up to 96 hours. The method, then:
To acquire live cell images of cells undergoing caspase-3/7 mediated apoptosis upon treatment with different concentrations of MDV-3100, IGF mAb_1, and the combination of both agents, the CellPlayer™ 96-Well Kinetic Caspase-3/7 Reagent (Essen BioScience; #4440) was used. 50000 VCaP cells/100 μl/well were seeded and treated on the next day with the respective concentrations of both agents in growth medium in the absence of R1881. The Caspase-3/7 reagent was diluted to a final concentration of 5 μM in 100 μl per well of growth medium and added to the medium. The plate was placed within a microplate tray into the IncuCyte™ 2011A and 3 images per well were acquired every 4 hours for 7 days using the phase contrast and fluorescence channels.

Experiment [6] relates to VCaP cells. Nature of the experiment: Cell cycle analysis using flow cytometry (propidium iodide). The method, then:
4×10^5 VCaP cells were treated with 1 μM of IGF mAb_1 and 10 μM of MDV-3100, and the combination of both agents, and incubated in 6-well plates at 37° C. for 24 h, 48 h and 72 h. Subsequently, the supernatant was transferred to FACS tubes, adherent cells were detached with trypsin and collected in the respective FACS tubes. After centrifugation, the medium was discarded and the cell pellet was fixed in ice-cold 70% ethanol for a minimum of 2 h at 4° C. After removing the ethanol entirely, fixed cells were stained with propidium iodide (10 μg/ml; Sigma; P4864-10 mL) in a hypotonic buffer solution (0.1% sodium citrate, 0.1% (v/v) triton X-100, 100 μg/ml DNase-free RNase A) and incubated in the dark at room temperature for 30 minutes. Cells were analyzed using the Becton Dickinson FACS Canto II Flow cytometer and data was evaluated with the FACS Diva software.
(In general: A flow cytometer gives signals particle by particle.)

Experiment [7] relates to IGF-1R, AR, PTEN levels and AKT-Ser473 phosphorylation in VCaP, MDA PCa 2b and DUCaP cells. The experiment is described as follows: Western blot protein analysis after 24 hours of treatment. To be noted: 24 hours treatment. On the procedure: One×10^6 and 4×10^6 cells were plated in 6-well plates and 10 cm dishes, respectively, in medium containing 10% heat-inactivated FCS and after over night incubation the cells were treated with 1 μM of MDV-3100 and 100 nM of IGF mAb_1 or a combination of antibody and AR signaling inhibitor. After 24 hours the cells were lyzed on the plates, total protein was isolated and protein concentration was determined by Bradford assay. Cell lysates were snap frozen and stored at −80° C.
(§4) Western blotting was performed loading 30-50 μg of total protein lysates on a 4-12% Bis-Tris PAG (Bio Rad) and blotting with the Bio Rad trans-Blot® Turbo system using a PVDF membrane. […] Cell cycle regulators and markers of proliferation and apoptosis were analyzed using the following antibodies: p21 Waf1/Cip1 (12D1; #2947, Cell Signaling; 1:1000), CDK2 (78B2; #2546, Cell Signaling; 1:1000), Cyclin E (C-19; sc-198, Santa Cruz; 1:1000), PCNA (#2586, Cell Signaling; 1:2000), and PARP (#9542, Cell Signaling; 1:1000).
(§5) Antibody dilutions were prepared in 5% BSA or 5% non-fat dry milk in TBS-0.5% Tween20 (TBS-T). Following washes in TBS-T membranes were incubated with a polyclonal HRP-conjugated goat anti-rabbit secondary antibody (DAKO, #P0448) for 1 hour and after further washes in TBS-T antibody reactivity was detected by means of ECL/Super ECL (GE Healthcare) and exposure on ImageQuant LAS4000. […]

Experiment [8] relates to AKT phosphorylation, PARP cleavage, p21, CDK2, Cyclin E, PCNA in VCaP cells. Nature of the experiment: Western blot time course of AKT phosphorylation, apoptosis and cell cycle regulators. On the procedure: One×10^6 and 4×10^6 cells were plated in 6-well plates and 10 cm dishes, respectively, in medium containing 10% […] and AR signaling inhibitor. […] Cell lysates were snap frozen and stored at −80° C.
as §4, §5

In experiment [9] the test system is VCaP cells. The experiment is described as follows: Analysis of cellular doubling time. To be noted: 10 μM MDV-3100, compared to untreated controls. The method, then: 3×10^5 cells/well VCaP cells were seeded in 2 mL cell culture medium per well. 24 hrs post seeding the cell culture medium was removed and replaced with DMEM+10% FCS without R1881. 24 hr following the medium change the pre-treatment wells were harvested and counted with the Beckman Coulter™ Vi-CELL XR 2.03, and 10 μM of MDV-3100 was added to the remaining cells. Four times every 24 hr VCaP cell number was determined in 3 wells for each time point. The mean value was calculated from these triplicates. To determine the generation time, following formula is used: […]

The subject of experiment [10] is VCaP cells. The experiment is described as follows: 3D soft agar cell proliferation assay. As to conditions: single agent or combination. The method, then: IGF mAb_2 was used for the treatment of VCaP cells in FIG. 2B. FIG. 2C (IGF mAb_1) and FIG. 2D (IGF mAb_2) show the results of MDA PCa 2b cells. […] In a 3D soft agar cell proliferation assay (FIG. 2G), VCaP cells were treated with abiraterone acetate and IGF mAb_2.

On to `CNC(=O)c1ccc(N2C(=S)N(c3ccc(C#N)c(C(F)(F)F)c3)C(=O)C2(C)C)cc1F` [MDV-3100, 4-{3-[4-cyano-3-(trifluoromethyl)phenyl]-5,5-dimethyl-4-oxo-2-sulfanylideneimidazolidin-1-yl}-2-fluoro-N-methylbenzamide], for which the “effect on 2D cell proliferation (in words)” value in experiment [1], in [2] and in [3] was “inhibition of cell proliferation” throughout. Besides, the “reduction of proliferative activity (thymidine incorporation)” value in experiment [4] is listed as “approximately 50%”. Further, the “induction of caspase 3 activity / apoptosis (in words)” value in [5] is “did not induce caspase 3 activity”. The G1/G0 population result in experiment [6] (10 μM MDV-3100, compared to untreated controls) is listed as “increased”. Moreover, the “sub-G1 apoptotic cell population” value in experiment [6] (24 h, 48 h and 72 h, 10 μM MDV-3100 and/or 1 μM mAb) is “did not induce; also recorded: does not change”. Besides, the AR protein levels result in experiment [7] is on record as “slightly increased”. Besides, in experiment [7], the IGF-1R levels result is recorded as “slightly decreased”. Also, the p21 levels result in experiment [8] (10 μM MDV-3100, at 8 and 24 hours) is “increased”. For the same compound, the PARP cleavage entry in [8] (10 μM MDV-3100 and/or 1 μM IGF mAb_1, 8 h, 24 h, 48 h and 72 h) was “did not induce”. Further, the “cellular doubling time (generation time)” value in experiment [9] is given as “prolonged cellular doubling time”.
With `CC(=O)O[C@H]1CC[C@@]2(C)C(=CC[C@@H]3[C@@H]2CC[C@]2(C)C(c4cccnc4)=CC[C@@H]32)C1` [abiraterone acetate], the “effect on 2D cell proliferation (in words)” value in [1], in experiment [2] and in experiment [3] was “inhibition of cell proliferation at higher concentrations” each time. The “effect on 3D cell proliferation (in words)” value in experiment [10] was “inhibition of cell proliferation at higher concentrations”.
